Assay results from the supplement of paper PMC11061612.

Columns and labels:
[1] = test system: 647-V (Bladder Carcinoma); experiment: Bliss excess, mean over the matrix (fraction); higher = more synergy
Summary of the method: (§1)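 Cell lines grown in DMEM/F12 or RPMI with 10% FBS were plated in 1536-well plates and held 24 hours at 37°C, 5% CO2 before 72 hours of exposure to two-drug dose matrices, with DMSO typically at 0.2%. CellTiter-Glo 2.0 luminescence gave viability, which was converted to inhibition. Vehicle wells were set to 0 and blank wells to 1. Combination Emax is the second-highest inhibition in the matrix, and Bliss excess is the observed combination effect minus the expected EA + EB − EA·EB, where EA and EB are the single-agent effects.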

[2] = test system: CAL-39 (Other Solid Carcinomas); experiment: as above
Summary of the method: as §1

CS1 (Chondrosarcoma) = experiment: as above
Summary of the method: as §1

[3] = test system: ETK-1 (Biliary Tract Carcinoma); experiment: as above
Summary of the method: as §1

[4] = test system: FU-OV-1 (Ovarian Carcinoma); experiment: as above
Summary of the method: as §1

[5] = test system: GDM-1 (Acute Myeloid Leukemia); experiment: as above
Summary of the method: as §1

[6] = test system: HCC1143 (Breast Carcinoma); experiment: as above
Summary of the method: as §1

[7] = test system: KG-1 (Acute Myeloid Leukemia); experiment: as above
Summary of the method: as §1

[8] = test system: MEG-01 (Chronic Myelogenous Leukemia); experiment: as above
Summary of the method: as §1

MSTO-211H (Mesothelioma) = experiment: as above
Summary of the method: as §1

[9] = test system: NCI-H1688 (Small Cell Lung Carcinoma); experiment: as above
Summary of the method: as §1

[10] = test system: SK-LMS-1 (Other Solid Carcinomas); experiment: as above
Summary of the method: as §1

[11] = test system: SNU-61 (Colorectal Carcinoma); experiment: as above
Summary of the method: as §1

[12] = test system: TC-YIK (Other Solid Carcinomas); experiment: as above
Summary of the method: as §1

[13] = test system: FU-OV-1 (Ovarian Carcinoma); experiment: combination Emax (second highest fraction inhibited in the dose matrix, 72 h); higher = more inhibition; extreme values may be limits of the assay
Summary of the method: as §1

[14] = test system: TC-YIK (Other Solid Carcinomas); experiment: as above
Summary of the method: as §1
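Wherever Bliss excess, mean over the matrix is given: after 72 h of two-drug dosing.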

SMILES | Bliss excess [1] | Bliss excess [2] | Bliss excess (CS1 (Chondrosarcoma)) | Bliss excess [3] | Bliss excess [4] | Bliss excess [5] | Bliss excess [6] | Bliss excess [7] | Bliss excess [8] | Bliss excess (MSTO-211H (Mesothelioma)) | Bliss excess [9] | Bliss excess [10] | Bliss excess [11] | Bliss excess [12] | combination Emax [13] | combination Emax [14]
NC1(C(=O)N[C@@H](CCO)c2ccc(Cl)cc2)CCN(c2ncnc3[nH]ccc23)CC1 [Capivasertib] + Cn1cnc2c(F)c(Nc3ccc(Br)cc3Cl)c(C(=O)NOCCO)cc21 [Selumetinib] (first compound max 10 µM, 7x7, partner max 10 µM) | -0.0134 | -0.019 | 0.0373 | 0.0555 | -0.0316 | 0.072 | -0.0014 | -0.0045 | 0.0548 | 0.0663 | 0.0549 | 0.0883 | 0.025 | 0.0245 | 0.592 | 0.496
COc1cc2ncnc(Nc3ccc(F)c(Cl)c3)c2cc1OCCCN1CCOCC1 [Gefitinib] + CC(C)n1c(=O)n(C)c2cnc3cc(F)c(-c4ccc(OCCCN5CCCCC5)nc4)cc3c21 [AZD1390] (first compound max 10 µM, 7x7, partner max 0.3 µM) | -0.0735 | -0.0004 | -0.0466 | -0.11 | -0.0717 | -0.0833 | -0.0572 | -0.0507 | -0.058 | -0.0571 | -0.0626 | -0.0726 | -0.0929 | -0.046 | 0.296 | 0.188
CS(=O)(=O)CCNCc1ccc(-c2ccc3ncnc(Nc4ccc(OCc5cccc(F)c5)c(Cl)c4)c3c2)o1 [Lapatinib] + C[C@@H](Oc1cc(-c2cnn(C3CCNCC3)c2)cnc1N)c1c(Cl)ccc(F)c1Cl [Crizotinib] (first compound max 10 µM, 7x7, partner max 10 µM) | 0.0097 | 0.026 | -0.0093 | -0.0596 | -0.0304 | -0.0027 | -0.0312 | -0.0028 | -0.0083 | -0.0667 | -0.0764 | -0.0611 | 0.0198 | -0.0828 | 0.696 | 0.957
CC(=O)c1c(C)c2cnc(Nc3ccc(N4CCNCC4)cn3)nc2n(C2CCCC2)c1=O [Palbociclib] + CC1(C)CCC(CN2CCN(c3ccc(C(=O)NS(=O)(=O)c4ccc(NCC5CCOCC5)c([N+](=O)[O-])c4)c(Oc4cnc5[nH]ccc5c4)c3)CC2)=C(c2ccc(Cl)cc2)C1 [Venetoclax] (first compound max 10 µM, 7x7, partner max 1 µM) | -0.0439 | -0.0566 | -0.0457 | -0.0207 | -0.0496 | 0.0557 | -0.0237 | 0.0888 | -0.0096 | -0.0922 | -0.0505 | -0.0316 | -0.0361 | -0.0713 | 0.175 | 0.534
CC(=O)c1c(C)c2cnc(Nc3ccc(N4CCNCC4)cn3)nc2n(C2CCCC2)c1=O [Palbociclib] + Cc1c2c(nn1C)CSCc1cc(n(C)n1)CSc1cc(c3ccccc3c1)OCCCc1c(C(=O)O)n(C)c3c-2c(Cl)ccc13 [AZD5991] (first compound max 10 µM, 7x7, partner max 1 µM) | -0.0442 | 0.0054 | -0.035 | -0.0808 | -0.0538 | 0.0919 | 0.0011 | -0.0169 | 0.0338 | -0.0265 | 0.0284 | -0.0081 | -0.0371 | -0.0144 | 0.235 | 0.547
CC(=O)c1c(C)c2cnc(Nc3ccc(N4CCNCC4)cn3)nc2n(C2CCCC2)c1=O [Palbociclib] + Cn1cnc2c(F)c(Nc3ccc(Br)cc3Cl)c(C(=O)NOCCO)cc21 [Selumetinib] (first compound max 10 µM, 7x7, partner max 10 µM) | -0.035 | 0.151 | 0.0219 | -0.0351 | 0.0004 | 0.0343 | 0.0325 | -0.0108 | 0.0404 | -0.0714 | -0.0471 | 0.0539 | 0.0179 | 0.001 | 0.4 | 0.729
C[C@@H](c1ccc2nccn2c1)n1nnc2ncc(-c3cnn(C)c3)nc21 [Savolitinib] + CC1(C)CCC(CN2CCN(c3ccc(C(=O)NS(=O)(=O)c4ccc(NCC5CCOCC5)c([N+](=O)[O-])c4)c(Oc4cnc5[nH]ccc5c4)c3)CC2)=C(c2ccc(Cl)cc2)C1 [Venetoclax] (first compound max 1 µM, 7x7, partner max 1 µM) | -0.057 | -0.0687 | -0.0056 | -0.0777 | -0.0389 | -0.0236 | -0.0361 | -0.015 | -0.0223 | -0.0501 | -0.047 | 0.0121 | -0.0709 | -0.0506 | 0.2 | 0.108
